The term GI50 denotes the concentration that inhibits growth by half. A higher GI50 goes with less potent growth inhibition.

Experimental findings from the Kinase Knowledgebase extract (Sharma et al. 2016) are described below.

Some results are limits rather than exact numbers.

The test system of test [1] is EGFR (Human), P00533 [Assessment of Proliferation in EGFR DelE746_A750 Mutant Expressing HCC827 Cells].
Test [2] has as its system EGFR (Human), P00533 [T790M/L858R]. The conditions noted are these: nci-h1975.

EGFR (Human), P00533 [T790M/L858R], sequence (P00533 whole entry T790M/L858R, looked up): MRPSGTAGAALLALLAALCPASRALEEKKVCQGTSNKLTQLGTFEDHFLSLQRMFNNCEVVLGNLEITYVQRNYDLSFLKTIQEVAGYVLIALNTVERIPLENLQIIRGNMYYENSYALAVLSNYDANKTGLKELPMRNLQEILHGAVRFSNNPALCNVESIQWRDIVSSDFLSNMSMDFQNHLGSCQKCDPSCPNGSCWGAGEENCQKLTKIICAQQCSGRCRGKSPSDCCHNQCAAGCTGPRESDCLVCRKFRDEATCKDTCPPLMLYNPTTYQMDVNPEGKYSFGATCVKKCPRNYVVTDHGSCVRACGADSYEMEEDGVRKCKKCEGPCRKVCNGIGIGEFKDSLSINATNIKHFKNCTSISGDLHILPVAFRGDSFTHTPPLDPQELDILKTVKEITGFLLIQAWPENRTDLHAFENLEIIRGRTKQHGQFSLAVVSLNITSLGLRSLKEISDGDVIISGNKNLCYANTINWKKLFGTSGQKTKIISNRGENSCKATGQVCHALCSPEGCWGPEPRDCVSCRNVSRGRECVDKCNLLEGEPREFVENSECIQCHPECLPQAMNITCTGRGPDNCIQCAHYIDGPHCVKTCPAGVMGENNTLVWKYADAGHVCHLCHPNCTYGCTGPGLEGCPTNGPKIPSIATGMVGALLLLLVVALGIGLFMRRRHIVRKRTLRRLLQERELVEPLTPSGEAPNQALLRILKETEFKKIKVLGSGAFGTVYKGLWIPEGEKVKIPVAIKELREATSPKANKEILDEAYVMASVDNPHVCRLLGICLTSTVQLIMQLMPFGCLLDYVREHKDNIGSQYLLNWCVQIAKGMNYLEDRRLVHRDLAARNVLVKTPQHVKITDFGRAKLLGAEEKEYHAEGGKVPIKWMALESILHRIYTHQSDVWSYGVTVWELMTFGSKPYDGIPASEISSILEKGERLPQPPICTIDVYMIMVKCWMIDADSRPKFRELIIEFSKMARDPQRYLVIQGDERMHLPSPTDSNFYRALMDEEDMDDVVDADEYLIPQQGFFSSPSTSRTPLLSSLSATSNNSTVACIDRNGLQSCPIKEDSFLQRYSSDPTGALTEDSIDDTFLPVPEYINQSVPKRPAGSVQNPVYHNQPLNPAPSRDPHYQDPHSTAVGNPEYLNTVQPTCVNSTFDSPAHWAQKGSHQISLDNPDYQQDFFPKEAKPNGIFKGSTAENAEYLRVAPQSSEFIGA
EGFR (Human), P00533 [Assessment of Proliferation in EGFR DelE746_A750 Mutant Expressing HCC827 Cells], sequence (P00533 whole entry, looked up, stated change not applied): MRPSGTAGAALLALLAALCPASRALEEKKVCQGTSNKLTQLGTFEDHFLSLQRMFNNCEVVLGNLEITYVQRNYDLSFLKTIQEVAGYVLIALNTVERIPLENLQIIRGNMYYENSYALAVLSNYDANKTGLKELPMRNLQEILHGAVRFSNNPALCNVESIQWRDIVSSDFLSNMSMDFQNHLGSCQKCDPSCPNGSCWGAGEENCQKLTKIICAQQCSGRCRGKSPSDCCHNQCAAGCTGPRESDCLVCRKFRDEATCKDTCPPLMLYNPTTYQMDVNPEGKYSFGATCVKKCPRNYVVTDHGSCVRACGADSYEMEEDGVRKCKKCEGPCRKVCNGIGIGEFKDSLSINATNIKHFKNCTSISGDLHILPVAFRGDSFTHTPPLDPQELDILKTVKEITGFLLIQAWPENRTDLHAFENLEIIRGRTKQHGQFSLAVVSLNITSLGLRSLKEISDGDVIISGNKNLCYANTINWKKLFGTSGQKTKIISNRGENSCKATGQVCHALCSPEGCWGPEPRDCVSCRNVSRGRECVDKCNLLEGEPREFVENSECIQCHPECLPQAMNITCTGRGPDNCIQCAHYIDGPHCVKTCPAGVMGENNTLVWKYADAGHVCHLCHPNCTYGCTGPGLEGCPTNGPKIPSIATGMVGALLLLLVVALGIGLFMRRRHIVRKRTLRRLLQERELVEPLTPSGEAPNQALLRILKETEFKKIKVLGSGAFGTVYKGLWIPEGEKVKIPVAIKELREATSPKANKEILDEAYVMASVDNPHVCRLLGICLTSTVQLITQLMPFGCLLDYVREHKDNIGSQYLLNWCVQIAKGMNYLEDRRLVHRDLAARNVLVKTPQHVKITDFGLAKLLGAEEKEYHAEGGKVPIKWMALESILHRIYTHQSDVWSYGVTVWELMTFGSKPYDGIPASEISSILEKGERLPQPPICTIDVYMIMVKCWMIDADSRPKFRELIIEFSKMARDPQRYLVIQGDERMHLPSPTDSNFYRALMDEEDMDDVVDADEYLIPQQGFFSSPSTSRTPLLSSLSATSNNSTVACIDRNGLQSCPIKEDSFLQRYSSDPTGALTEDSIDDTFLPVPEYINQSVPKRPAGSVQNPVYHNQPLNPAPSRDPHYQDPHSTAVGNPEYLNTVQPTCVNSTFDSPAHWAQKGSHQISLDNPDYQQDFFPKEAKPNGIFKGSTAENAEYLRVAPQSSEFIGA

`C=CC(=O)Nc1cccc(Oc2nc(Nc3ccc(N4CCNCC4)cc3)nc3ccsc23)c1`: the results for the GI50 in test [1] and in test [2] were no more than 50 nM and 100 to 1000 nM, respectively.

Consider `C=CC(=O)Nc1cccc(Oc2nc(Nc3ccc(CCN4CCN(S(C)(=O)=O)CC4)cc3)nc3ccsc23)c1`, for which the GI50 in test [1] and in test [2] was no more than 50 nM in each case.

Regarding `C=CC(=O)Nc1cccc(Oc2nc(Nc3ccc(OCCN(CC)CC)c(F)c3)nc3ccsc23)c1`, the GI50 in test [1] and in test [2] was no more than 50 nM throughout.

For `C=CC(=O)Nc1cccc(Oc2nc(Nc3ccc(NC(=O)CCN4CCCC4)cc3)nc3ccsc23)c1`, the GI50 in test [1] and in test [2] was no more than 50 nM throughout.

For the compound `C=CC(=O)Nc1cccc(Oc2nc(Nc3ccc(OCCOC)c(F)c3)nc3ccsc23)c1`, the figures for the GI50 in test [1] and in test [2] were 50 to 100 nM and no more than 50 nM, respectively.

For `C=CC(=O)Nc1cccc(Oc2nc(Nc3ccc(N4CCN(S(=O)(=O)CC)CC4)c(F)c3)nc3ccsc23)c1`, the GI50 is 50 to 100 nM in test [1] and no more than 50 nM in test [2].

On to `C=CC(=O)Nc1cccc(Oc2nc(Nc3ccc(NC4CCN(C(C)C)CC4)nc3)nc3ccsc23)c1`, for which the GI50 in test [1] and in test [2] was 50 to 100 nM throughout.

With `C=CC(=O)Nc1cccc(Nc2nc(Nc3ccc(CN4CCCCC4)cc3OC)nc3ccsc23)c1`, the GI50 in test [1] and in test [2] was 50 to 100 nM in each case.

For the compound `C=CC(=O)Nc1cccc(Oc2nc(Nc3ccc(S(C)(=O)=O)cc3)nc3ccsc23)c1`, the GI50 in test [1] is 50 to 100 nM; in test [2], no more than 50 nM.

For `C=CC(=O)Nc1cccc(Oc2nc(Nc3ccc(C(C)=O)cc3)nc3ccsc23)c1`, the GI50 in test [1] and in test [2] was no more than 50 nM in each case.

Regarding `C=CC(=O)Nc1cccc(Oc2nc(Nc3ccc(N4CCC(N5CCCC5)CC4)cc3)nc3ccsc23)c1`, the GI50 in test [1] and in test [2] was no more than 50 nM in each case.

With `C=CC(=O)Nc1cccc(Oc2nc(Nc3ccc(NC(=O)N4CCN(C)CC4)cc3)nc3ccsc23)c1`, the GI50 in test [1] is 50 to 100 nM; in test [2], no more than 50 nM.

Take `C=CC(=O)Nc1cccc(Oc2nc(Nc3ccc(C4CCN(C(C)C)CC4)cc3)nc3ccsc23)c1`: the GI50 in test [1] and in test [2] was no more than 50 nM each time.

With `C=CC(=O)Nc1cccc(Oc2nc(Nc3ccc(N4CCN(CC)CC4)cc3OC)nc3ccsc23)c1`, the GI50 in test [1] and in test [2] was no more than 50 nM in each case.

For `C=CC(=O)Nc1cccc(Oc2nc(Nc3ccc(NC4CCN(C(C)C)CC4)c(F)c3)nc3ccsc23)c1`, the GI50 in test [1] and in test [2] was no more than 50 nM in each case.

For the compound `C=CC(=O)Nc1cccc(Oc2nc(Nc3ccc(N4CCC(C(=O)N(C)C)CC4)cc3)nc3ccsc23)c1`, the GI50 in test [1] and in test [2] was no more than 50 nM throughout.

With `C=CC(=O)Nc1cccc(Oc2nc(Nc3ccc(N4CCN(C)CC4)cc3F)nc3ccsc23)c1`, the GI50 in test [1] and in test [2] was 50 to 100 nM in each case.

For `C=CC(=O)Nc1cccc(Oc2nc(Nc3ccc(C4CCN(C)CC4)c(Cl)c3)nc3ccsc23)c1`, the GI50 in test [1] and in test [2] was 50 to 100 nM in each case.

Regarding `C=CC(=O)Nc1cccc(Oc2nc(Nc3ccc(C(=O)N(C)C)cc3)nc3ccsc23)c1`, the GI50 in test [1] and in test [2] was 50 to 100 nM in each case.

As to `C=CC(=O)Nc1cccc(Oc2nc(Nc3ccc(NC4CCN(C)CC4)cc3)nc3ccsc23)c1`, the GI50 was no more than 50 nM in test [1] and 100 to 1000 nM in test [2].

In the case of `C=CC(=O)Nc1cccc(Sc2nc(Nc3ccc(N4CCN(C)CC4)cc3)nc3ccsc23)c1`, the GI50 in test [1] and in test [2] was no more than 50 nM in each case.

Regarding `C=CC(=O)Nc1cccc(Nc2nc(Nc3ccc(CN4CCCCC4)cc3)nc3ccsc23)c1`, the GI50 in test [1] and in test [2] was no more than 50 nM each time.

As to `C=CC(=O)Nc1cccc(Oc2nc(Nc3ccc(C(=O)OCCCN(C)C)cc3)nc3ccsc23)c1`, the GI50 in test [1] and in test [2] was 50 to 100 nM in each case.

Consider `C=CC(=O)Nc1cccc(Oc2nc(Nc3ccc(N4CCN(C)CC4)c(F)c3)nc3ccsc23)c1`, for which the GI50 in test [1] and in test [2] was no more than 50 nM in each case.

For the compound `C=CC(=O)Nc1cccc(Oc2nc(Nc3ccc(N4CCN(C)CC4)cc3OC)nc3ccsc23)c1`, the GI50 in test [1] and in test [2] was 50 to 100 nM each time.

For the compound `C=CC(=O)Nc1cccc(Oc2nc(Nc3ccc(C[S+](C)[O-])cc3)nc3ccsc23)c1` (stereo not given), the GI50 in test [1] and in test [2] was no more than 50 nM throughout.

Take `C=CC(=O)Nc1cccc(Oc2nc(Nc3ccc(C(=O)NCCN4CCCC4)cc3OC)nc3ccsc23)c1`: the values for the GI50 in test [1] and in test [2] were no more than 50 nM and 50 to 100 nM, respectively.

In the case of `C=CC(=O)Nc1cccc(Oc2nc(Nc3ccc(CN4CCN(CC)CC4)cc3)nc3ccsc23)c1`, the GI50 in test [1] and in test [2] was no more than 50 nM in each case.

`C=CC(=O)Nc1cccc(Nc2nc(Nc3ccc(CCN4CCN(C)CC4)cc3)nc3ccsc23)c1`: the GI50 in test [1] is 50 to 100 nM; in test [2], no more than 50 nM.

On to `C=CC(=O)Nc1cccc(Oc2nc(Nc3ccc(CCN(C)C)cc3)nc3ccsc23)c1`, for which the GI50 in test [1] and in test [2] was no more than 50 nM in each case.

Consider `C=CC(=O)Nc1ccc(F)c(Oc2nc(Nc3ccc(N4CCN(C)CC4)cc3)nc3ccsc23)c1`, for which the GI50 in test [1] and in test [2] was no more than 50 nM each time.

Turning to `C=CC(=O)Nc1cccc(Oc2nc(Nc3ccc(CN(C)C)cc3C)nc3ccsc23)c1`, the 50% growth inhibitory concentration (GI50) in test [1] and in test [2] was no more than 50 nM each time.

Turning to `C=CC(=O)Nc1cccc(Oc2nc(Nc3ccc(N4CCC(N5CCN(CC)CC5)CC4)cc3)nc3ccsc23)c1`, the GI50 in test [1] was no more than 50 nM; in test [2], 100 to 1000 nM.

Take `C=CC(=O)Nc1cccc(Oc2nc(Nc3ccc(CCO)cc3)nc3ccsc23)c1`: the GI50 in test [1] and in test [2] was no more than 50 nM each time.

For the compound `C=CC(=O)Nc1cccc(Oc2nc(Nc3ccc(N4CC(C)N(C)C(C)C4)cc3)nc3ccsc23)c1` (stereo not given), the GI50 in test [1] and in test [2] was no more than 50 nM each time.

As for `C=CC(=O)Nc1cccc(Oc2nc(Nc3ccc(-n4ccnc4)cc3)nc3ccsc23)c1`, the GI50 in test [1] is 50 to 100 nM; in test [2], no more than 50 nM.

Take `C=CC(=O)Nc1cccc(Oc2nc(Nc3ccc(N4CCN(S(=O)(=O)N(C)C)CC4)cc3)nc3ccsc23)c1`: the GI50 in test [1] and in test [2] was 50 to 100 nM each time.

Turning to `C=CC(=O)Nc1cccc(Oc2nc(Nc3ccc(N4CCN(C(=O)CN(C)C)CC4)c(F)c3)nc3ccsc23)c1`, the GI50 in test [1] and in test [2] was no more than 50 nM each time.

Turning to `C=CC(=O)Nc1cccc(Nc2nc(Nc3ccc(C4CCN(C)CC4)c(F)c3)nc3ccsc23)c1`, the GI50 in test [1] and in test [2] was no more than 50 nM each time.

Consider `C=CC(=O)Nc1cccc(Oc2nc(Nc3ccc(C4CCN(C)CC4)cc3OC)nc3ccsc23)c1`, for which the results for the GI50 in test [1] and in test [2] were 50 to 100 nM and no more than 50 nM, respectively.

For the compound `C=CC(=O)Nc1cccc(Oc2nc(Nc3ccc(N4CCN(CC(F)F)CC4)cc3)nc3ccsc23)c1`, the GI50 in test [1] and in test [2] was no more than 50 nM each time.

Take `C=CC(=O)Nc1cccc(Oc2nc(Nc3ccc(C4CCN(C)CC4)c(F)c3)nc3ccsc23)c1`: the GI50 in test [1] and in test [2] was no more than 50 nM throughout.

In the case of `C=CC(=O)Nc1cccc(Oc2nc(Nc3ccc(N4CCC(CN5CCCCC5)CC4)cc3)nc3ccsc23)c1`, the concentration for 50% growth inhibition (GI50) in test [1] and in test [2] was no more than 50 nM in each case.

Turning to `C=CC(=O)Nc1cccc(Oc2nc(Nc3ccc(C(=O)N4CCN(CC)CC4)cc3)nc3ccsc23)c1`, the GI50 in test [1] and in test [2] was no more than 50 nM each time.

For the compound `C=CC(=O)Nc1cccc(Oc2nc(Nc3ccc(C4CCN(CC)CC4)cc3)nc3ccsc23)c1`, the GI50 in test [1] and in test [2] was no more than 50 nM in each case.

For the compound `C=CC(=O)Nc1cccc(Oc2nc(Nc3ccc(N4CCN(C)CC4)c(OC)c3)nc3ccoc23)c1`, the GI50 in test [1] and in test [2] was no more than 50 nM each time.

`C=CC(=O)Nc1cccc(Oc2nc(Nc3ccc(NC4CCN(C)CC4)c(F)c3)nc3ccoc23)c1`: the GI50 in test [1] and in test [2] was no more than 50 nM throughout.

Regarding `C=CC(=O)Nc1cccc(Oc2nc(Nc3ccc(C(=O)NC4CCN(C)CC4)cc3)nc3ccsc23)c1`, the GI50 in test [1] and in test [2] was no more than 50 nM throughout.

In the case of `C=CC(=O)Nc1cccc(Oc2nc(Nc3ccc(N4CCN(S(C)(=O)=O)CC4)c(F)c3)nc3ccsc23)c1`, the GI50 in test [1] and in test [2] was no more than 50 nM in each case.

For the compound `C=CC(=O)Nc1cccc(Oc2nc(Nc3ccc(N4CCC(N5CCOCC5)CC4)cc3)nc3ccsc23)c1`, the GI50 in test [1] and in test [2] was no more than 50 nM each time.

On to `C=CC(=O)Nc1cccc(Oc2nc(Nc3ccc(NCCN(C)C)c(F)c3)nc3ccsc23)c1`, for which the GI50 in test [1] and in test [2] was no more than 50 nM throughout.

Consider `C=CC(=O)Nc1cccc(Oc2nc(Nc3ccc4c(c3)OCCO4)nc3ccsc23)c1`, for which the GI50 in test [1] is 50 to 100 nM; in test [2] it was no more than 50 nM.

For the compound `C=CC(=O)Nc1cccc(Nc2nc(Nc3ccc(NC4CCN(C)CC4)c(F)c3)nc3ccsc23)c1`, the GI50 in test [1] was no more than 50 nM; in test [2], 50 to 100 nM.

On to `C=CC(=O)Nc1cccc(Oc2nc(Nc3ccc(N4CCN(S(C)(=O)=O)CC4)cc3)nc3ccsc23)c1`, for which the GI50 in test [1] is 50 to 100 nM; in test [2] it was no more than 50 nM.

With `C=CC(=O)Nc1cccc(Oc2nc(Nc3ccc(CN4CCC(N(C)C)CC4)c(F)c3)nc3ccsc23)c1`, the results for the 50% growth inhibitory concentration (GI50) in test [1] and in test [2] were no more than 50 nM and 50 to 100 nM, respectively.

Consider `C=CC(=O)Nc1cccc(Oc2nc(Nc3ccc(N4CCC(CN(C)C)CC4)cc3)nc3ccsc23)c1`, for which the GI50 in test [1] and in test [2] was no more than 50 nM in each case.

Consider `C=CC(=O)Nc1ccc(F)c(Nc2nc(Nc3ccc(N4CCN(C)CC4)c(F)c3)nc3ccsc23)c1`, for which the GI50 in test [1] and in test [2] was no more than 50 nM throughout.

For `C=CC(=O)Nc1cccc(Oc2nc(Nc3ccc(C(C)N4CCN(CC)CC4)cc3)nc3ccsc23)c1` (stereo not given), the GI50 in test [1] and in test [2] was no more than 50 nM in each case.

Regarding `C=CC(=O)Nc1cccc(Oc2nc(Nc3ccc(C(=O)NC4CCN(C)CC4)c(Cl)c3)nc3ccsc23)c1`, the GI50 in test [1] and in test [2] was no more than 50 nM in each case.

In the case of `C=CC(=O)Nc1cccc(Oc2nc(Nc3ccc(S(=O)(=O)NCCN(C)C)cc3)nc3ccsc23)c1`, the GI50 in test [1] and in test [2] was no more than 50 nM in each case.
